Tests used:
HepG2 = test: Cellular internalization of gemcitabine-bound chemically optimized aptamers; assay type: cell-based; conditions: analysis in HepG2 and A431 cells, FIGS. 20 to 22
Description: [The source words this procedure for another cell line and reports this cell line under the same test.] 5 aptamer libraries prepared by truncating the 12-10 aptamer at various lengths [12-12 (35-mer), 12-11 (29-mer), 12-13 (24-mer), 12-14 (23-mer), and 12-15 (18-mer)] were subjected to cellular internalization analysis. In detail, a 6-well plate was prepared, and a round cover glass was placed in the 6-well plate. Huh-7 cells were cultured in the 6-well plate according to the method of Example 1-3. 5 μM of the aptamer stock was mixed with 5×SB18 buffer to prepare the aptamer at a concentration of 4 μM, and heated at 95° C. for 5 min, and then cooled at room temperature for 15 min or more. The next day, the medium was removed from the cultured cells, and a serum-free medium was added thereto, and cultured under conditions of 37° C. and 5% CO2 for 1 hr. The serum-free medium was removed, and then the cells were washed with 2 mL of 1×PBS. KRPH buffer was added, and cultured under conditions of 37° C. and 5% CO2 for 1 hr. 4 μM aptamer was diluted to 25 nM, and then cultured under conditions of 37° C. and 5% CO2 for 1 hr or 4 hr. Washing was repeated three times with 2 mL of 1×PBS. Washing was performed in a shaker at room temperature for 10 min while blocking the light. Thereafter, the cells were fixed by treatment with 4% paraformaldehyde at 4° C. for 10 min. Washing was repeated three times with 2 mL of 1×PBS. […]

[1] = tested on: GPC3-expressing hepatoma cells; test: Cell-killing effect (CCK-8) of gemcitabine-bound combi aptamers; assay type: cell-based; conditions: FIG. 23 and FIG. 24
Description: In detail, Huh-7 cells (ATCC, Rockville, MD, USA) were seeded in a 96-well plate at a density of 1×10^4/mL, and cultured using a DMEM (Gibco, Grand Island, NY, USA) medium containing 10% FBS (Gibco, Grand Island, NY, USA) and 1% antibiotics (penicillin/streptomycin) under conditions of 5% CO2 and 37° C. Next day, the aptamer stock (100 μM) was mixed with 5×SB18 buffer to prepare the stock at a concentration of 80 μM, and heated at 95° C. for 5 min, and then cooled at room temperature for 15 min or more. The medium was removed from the cultured cells, and 100 μL of a serum-free medium was added thereto, and cultured under conditions of 37° C. and 5% CO2 for 1 hr. The serum-free medium was removed, and then the cells were washed with 100 μL of 1×PBS. 100 μL of KRPH buffer was added, and cultured under conditions of 37° C. and 5% CO2 for 1 hr. The aptamer was diluted with KRPH buffer to 2-fold of the desired concentration, and added to a 96-well plate at 1× concentration, and cultured under conditions of 37° C. and 5% CO2 for 4 hr. After treatment with the aptamer, the KRPH buffer was removed, and then 100 μL of culture medium was added and cultured under conditions of 37° C. and 5% CO2 for […]. 6 days later, 10 μL of a kit solution of CCK-8 (Cell Counting Kit-8) was added to each well, and then cultured under conditions of 37° C. and 5% CO2 for 3 hr. Cell death levels were examined at […] using a microplate reader.

[2] = tested on: hepatoma cells (Hep3B, HepG2); test: Cell cycle analysis (propidium iodide, FACS); assay type: cell-based; conditions: 4 hr treatment, FIGS. 25 and 26
Description: (§1) To analyze the effects of combi 4 and combi 5 bound with three or five gemcitabines on the cell cycle of hepatoma cells, cell cycle analysis was performed. In detail, Hep3B, HepG2, and A431 cells were seeded in a 6-well plate at a density of 1×10^6/ml, and cultured using a DMEM medium containing 10% FBS and 1% antibiotics (penicillin/streptomycin) under conditions of 5% CO2 and 37° C., respectively. Next day, 100 μM of the modified aptamer stock was mixed with 5×SB18 buffer to prepare the aptamer at a concentration of 80 μM, and heated at 95° C. for 5 min, and then cooled at room temperature for 15 min or more. The medium was removed from the cultured cells, and replaced by a serum-free medium, and cultured under conditions of 37° C. and 5% CO2 for 1 hr. The serum-free medium was removed, and then the cells were washed with 2 ml of 1×PBS. 2 ml of KRPH buffer was added, and cultured under conditions of 37° C. and 5% CO2 for 1 hr. The aptamer was added, and cultured under conditions of 37° C. and 5% CO2 for 4 hr. The KRPH buffer was removed, and 2 ml of 1×PBS was added thereto to perform washing, and then PBS was removed. 2 ml of 1×PBS was added, and cells were scraped using a scraper, and collected in FACs tubes, followed by centrifugation at 4° C. and 2000 rpm for 4 minutes. 1/500-fold diluted RNAase A and propidium iodide diluted with PBS at a concentration of 50 μg/ml were added to the FACs tubes at a volume of 500 μL, followed by pipetting. Incubation was performed at room temperature for 30 min while blocking the light, and then cell cycle was measured.

[3] = tested on: squamous cell carcinoma cells (A431); test: Cell cycle analysis (propidium iodide, FACS); assay type: cell-based; conditions: 4 hr treatment, FIG. 27
Description: as §1

[4] = Serum stability analysis (urea PAGE); assay type: in vitro ADME, human
Description: To examine whether 12-12, combi 5 aptamer, combi 4 and combi 5 modified aptamers bound with three or five gemcitabines are stable in the human serum, serum stability was analyzed. In detail, 10 μL of […] was added to 100% human serum, followed by incubation at 37° C. for 0 hr, 1 hr, 3 hr, 6 hr, 12 hr, and 24 hr. After incubation, 5 μL of […] was added, and distilled water was added to a volume of 250 μL. 250 μL of phenol:chloroform:isoamyl alcohol (25:24:1) was added in the equal volume, followed by stirring. Each sample was centrifuged at 16000×g for 10 min. The supernatant was transferred to a new tube, and completely dried. The resultant was diluted with 5× sample buffer and distilled water, and boiled at 95° C. for 5 min, and cooled. The sample was separated by urea PAGE (Polyacrylamide gel Electrophoresis) at 220 V for 25 min, and then stained with SYBR gold and examined using a Gel Doc™ EZ system.

Substance: Combi 5 G(3) (DNA GNGAANGCGNNGAANNANWYSSSNNCAGNCANCAC; gemcitabines, 2'-OMe, 2'-F, BzdU, 3' idT; Combi 5 G(3); (1)..(1) G is 2-O-Methoxy-DNA.; (2)..(2) n is BzdU.; (3)..(3) G is 2-O-Methoxy-DNA.; (4)..(4) A is 2-Fluorine-DNA.; (5)..(5) A is 2-Fluorine-DNA.; (6)..(6) n is BzdU.; (10)..(10) n is BzdU.; (11)..(11) n is BzdU.; (12)..(12) G is 2-Fluorine-DNA.; (13)..(13) A is 2-Fluorine-DNA.; (14)..(14) A is 2-O-Methoxy-DNA.; (15)..(15) n is BzdU.; (16)..(16) n is BzdU.; (17)..(17) A is 2-O-Methox)
- cellular internalization (HepG2): excellent cellular internalization
- concentration from which a cell-killing effect is shown [1]: 100 nM
- cell cycle arrest [2]: arrested hepatoma cells at the G1/S phase
- cell cycle arrest [3]: no cell cycle arrest
- half-life in the human serum ([4]; 100% human serum, 37° C., FIG. 28): about 64 hr
- improvement of serum half-life compared with 12-12 aptamer ([4]; human serum): ≥ 10 times
